Results reported in paper PMC8770514, “Induction of CTH expression in response to amino acid starvation confers resistance to anti-LAT1 therapy in MDA-MB-231 cells” (Scientific Reports, 2022).

Biological target: T1, L type amino acid transporter 1 (LAT1) (Homo sapiens, UniProt Q01650)
T1 construct: gene SLC7A5; with 4F2 heavy chain (4F2hc)
Experiment: inhibition of […] L-leucine uptake ([…] min, […] °C) in MDA-MB-231 cells (endogenous LAT1); […] in T-47D cells
Assay type: cell-based

T1 sequence (Q01650 whole entry): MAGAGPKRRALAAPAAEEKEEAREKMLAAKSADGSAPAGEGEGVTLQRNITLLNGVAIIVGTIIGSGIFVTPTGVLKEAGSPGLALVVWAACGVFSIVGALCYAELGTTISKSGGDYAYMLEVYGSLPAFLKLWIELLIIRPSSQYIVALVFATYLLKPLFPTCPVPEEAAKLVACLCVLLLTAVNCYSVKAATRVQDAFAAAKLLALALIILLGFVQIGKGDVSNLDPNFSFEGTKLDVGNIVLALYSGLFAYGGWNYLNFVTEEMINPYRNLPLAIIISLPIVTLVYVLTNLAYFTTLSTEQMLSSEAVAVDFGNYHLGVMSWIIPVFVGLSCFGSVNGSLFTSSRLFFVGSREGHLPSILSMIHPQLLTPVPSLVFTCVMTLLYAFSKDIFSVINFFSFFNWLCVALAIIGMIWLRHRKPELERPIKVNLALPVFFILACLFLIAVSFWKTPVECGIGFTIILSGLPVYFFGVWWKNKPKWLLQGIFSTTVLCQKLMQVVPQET
T1 sequence (P08195 103-630 partner): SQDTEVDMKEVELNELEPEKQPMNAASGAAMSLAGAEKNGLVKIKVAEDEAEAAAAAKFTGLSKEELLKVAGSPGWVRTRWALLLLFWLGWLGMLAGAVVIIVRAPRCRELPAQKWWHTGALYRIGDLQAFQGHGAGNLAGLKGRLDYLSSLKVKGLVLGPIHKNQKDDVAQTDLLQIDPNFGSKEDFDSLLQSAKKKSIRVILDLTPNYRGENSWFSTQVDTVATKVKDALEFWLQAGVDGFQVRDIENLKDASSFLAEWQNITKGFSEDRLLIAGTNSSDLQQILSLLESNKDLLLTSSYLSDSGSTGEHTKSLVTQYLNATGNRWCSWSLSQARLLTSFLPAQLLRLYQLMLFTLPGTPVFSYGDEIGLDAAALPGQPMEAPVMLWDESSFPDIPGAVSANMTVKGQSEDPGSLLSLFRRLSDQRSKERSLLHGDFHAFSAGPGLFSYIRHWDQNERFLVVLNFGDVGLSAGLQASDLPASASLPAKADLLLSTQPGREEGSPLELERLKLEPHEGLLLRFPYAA

Structure (SMILES): Nc1cc(COc2c(Cl)cc(C[C@H](N)C(=O)O)cc2Cl)c2oc(-c3ccccc3)nc2c1 [JPH203, (S)-2-amino-3-(4-((5-amino-2-phenylbenzo[d]oxazol-7-yl)methoxy)-3,5-dichlorophenyl)-propanoic acid]
- IC50: 60 ± 20 nM
